Assays:
[1] = Inhibition of CCR5-mediated HIV-1 Bal entry in human GHOST CCR5 cells assessed as decrease in viral reverse transcriptase activity by measuring [3H]thymidine triphosphate incorporation measured after 60 to 90 mins by scintillation counting analysis
[2] = Inhibition of MOR-mediated HIV1 BaL01 infection in GFP-tagged human OPRM1 transfected TZM-bl cells co-expressing HIV1 - LTR assessed as inhibition of viral entry in presence of morphine by measuring LTR-driven luciferase activity pretreated for 1 hr before infection measured after 2 to 3 days of infection
[3] = Inhibition of MOR-mediated HIV1 BaL01 infection in GFP-tagged human OPRM1 transfected TZM-bl cells co-expressing HIV1 - LTR assessed as inhibition of viral entry by measuring LTR-driven luciferase activity pretreated for 1 hr before infection measured after 2 to 3 days of infection

Row | SMILES | EC50 [1] | EC50 [2] | EC50 [3]
1 | CC(C)c1nnc(CCNC(=O)COCC(=O)NCCCCCCCNC(=O)COCC(=O)N[C@@H]2CC[C@@]3(O)[C@H]4Cc5ccc(O)c6c5[C@@]3(CCN4CC3CC3)[C@H]2O6)n1C1C[C@H]2CC[C@@H](C1)N2CC[C@H](NC(=O)C1CCC(F)(F)CC1)c1ccccc1 (some centres undefined) | 93 nM | 247 nM | 368 nM
2 | Cc1nnc(C(C)C)n1C1C[C@H]2CC[C@@H](C1)N2CC[C@H](NC(=O)C1CCC(F)(F)CC1)c1ccc(NC(=O)COCC(=O)NCCCCCCCNC(=O)COCC(=O)N[C@@H]2CC[C@@]3(O)[C@H]4Cc5ccc(O)c6c5[C@@]3(CCN4CC3CC3)[C@H]2O6)cc1 (some centres undefined) | > 100000 nM | – | –
